Laboratory results from BindingDB's records for doi:10.1021/jm00004a013 (Solvay Pharma, 1995).
pIC50: −log10 of the molar value.

Target: Polyunsaturated fatty acid 5-lipoxygenase (Cavia porcellus)
Assay: Inhibitory activity against partially-purified Guinea pig PMN 5-lipoxygenase

pIC50: 5.55
SMILES: Cc1ccnc(N2CCN(CCc3c(C)n4c5c(cc(O)cc35)CCC4)CC2)c1 [2-Methyl-1-{2-[4-(4-methyl-pyridin-2-yl)-piperazin-1-yl]-ethyl}-5,6-dihydro-4H-pyrrolo[3,2,1-ij]quinolin-8-ol]
